Values of other authors in patent US9839604B1, “Composition for an anti-aging treatment” (Parham Tabibian, MD, Inc., priority 2014, dated 2017).

What was measured:
[1] = compared with other forms of Vitamin K1 and K2, also remains in the bloodstream longer
[2] = humectant capacity

| Compound | levels reached in the bloodstream relative to other forms of Vitamin K1 and K2 [1] | water attracted and bound [2] |
| --- | --- | --- |
| CC(C)=CCC/C(C)=C/CC/C(C)=C/CC/C(C)=C/CC/C(C)=C/CC/C(C)=C/CC/C(C)=C/CC1=C(C)C(=O)c2ccccc2C1=O [MK-7] | seven- to eight-fold higher |  |
| hyaluronic acid |  | up to 1800 times its own weight in water |
